Among the data in patent US7683168B2, “Compositions of novel opioid compounds and method of use thereof” (priority 2005, dated 2010) are Seiz., EC50 and Ki values, retold here.

The subject of data set [1] is seizure-like convulsions in mice. Put plainly: mouse seizure-like convulsions. The class given is in vivo. Here is the method:
Mouse Seizure-Like Convulsions and antinociception: The central (CNS) effects of the compound were tested with central delta receptor mediated seizure-like convulsions and central mu opioid receptor mediated antinociceptive effects in mice. Male CD-1 mice (Charles River, Raleigh, N.C.) weighing 20-25 g were used to determine the seizure-like convulsion and antinociception activities for compounds.
They were then observed for seizure-like convulsions for one hour following the treatment. A seizure-like event was recorded if a mouse had uncontrollable clonic (or tonic/clonic) muscle movements that encompassed its entire body, usually followed by a brief cataleptic period. Catalepsy was determined by placing the animal's front paws on a horizontal bar held 2-3 inches from the cage floor. Cataleptic animals made no attempt to remove their paws.

Data set [2] deals with mouse vas deferens. Nature of the data set: electrically stimulated mouse vas deferens (MVD) ED50. In kind it is cell-based. To be noted: ED50, inhibition of electrically induced contractions.
Data set [3] relates to guinea pig ileum. Put plainly: electrically stimulated guinea pig ileum (GPI) ED50. The class given is cell-based. To be noted: Cavia porcellus; ED50, inhibition of electrically induced contractions. On the procedure:
Further the compounds of formula (1) were evaluated for in vitro opioid receptor activity in various receptor systems, including mouse vas deferens (Mouse Vas Deferens ED50), and guinea pig ileum (Guinea Pig Ileum ED50). The assay procedures used for such determinations of receptor activity are set out below.
Intact ileums (about 3 cm length) were removed from guinea pig and suspended with 1 g of tension in a bath chamber as described for the vasa deferentia. The ileums were stimulated with electrical square-wave pulses of 0.1-Hz, 1 msec pulse duration at supramaximal voltage.
The ED50 values were extrapolated from curves showing the dose concentration plotted against the response (J. A. H. Lord, A. A. Waterfield, J. Hughes, H. W. Kosterlitz, Nature 267, 495, (1977)).

Data set [4] addresses T1, human mu opioid receptor (Homo sapiens, UniProt P35372).
T1 construct: purchased Perkin Elmer, Boston, Mass; 6110535; host or cells: CHO cells
Put plainly: radioligand binding, human mu opioid receptor, CHO cell membranes. Particulars: species not given, read-out: μ.

Data set [5] deals with T2, human delta receptor (Homo sapiens, UniProt P41143).
T2 construct: purchased Perkin Elmer, Boston, Mass; 6110549; host or cells: HEK-293 cells
Nature of the data set: radioligand binding, human delta receptor, HEK-293 cell membranes. Particulars: cell not marked (rat), species not given, read-out: δ.

T1 sequence (P35372 whole entry): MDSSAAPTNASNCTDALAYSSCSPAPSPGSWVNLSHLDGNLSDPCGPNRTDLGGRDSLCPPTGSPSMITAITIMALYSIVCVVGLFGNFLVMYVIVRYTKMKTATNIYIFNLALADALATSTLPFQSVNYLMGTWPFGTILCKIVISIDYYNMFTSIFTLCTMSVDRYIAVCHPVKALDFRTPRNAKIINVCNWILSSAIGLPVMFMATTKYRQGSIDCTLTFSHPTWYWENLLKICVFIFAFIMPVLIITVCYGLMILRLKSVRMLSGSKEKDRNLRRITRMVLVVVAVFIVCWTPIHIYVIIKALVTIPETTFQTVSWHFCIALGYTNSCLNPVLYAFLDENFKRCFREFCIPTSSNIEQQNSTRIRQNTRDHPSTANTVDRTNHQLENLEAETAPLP
T2 sequence (P41143 whole entry): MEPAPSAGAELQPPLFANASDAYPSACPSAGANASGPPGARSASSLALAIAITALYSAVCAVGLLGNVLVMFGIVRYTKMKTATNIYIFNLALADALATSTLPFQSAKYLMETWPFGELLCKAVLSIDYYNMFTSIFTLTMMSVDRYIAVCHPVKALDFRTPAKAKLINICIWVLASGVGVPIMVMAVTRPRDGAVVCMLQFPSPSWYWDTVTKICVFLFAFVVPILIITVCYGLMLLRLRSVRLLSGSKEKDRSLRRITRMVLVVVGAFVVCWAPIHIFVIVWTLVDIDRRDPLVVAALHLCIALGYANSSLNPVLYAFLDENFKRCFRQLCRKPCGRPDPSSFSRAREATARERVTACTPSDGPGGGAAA

A word on the EC50: it is the concentration needed to bring the measured effect to its halfway point. For the compound `C[C@@H]1CN([C@@H](c2cccc(O)c2)c2cccc(C(=O)N3CCC(C(=O)O)CC3)c2)[C@@H](C)CN1Cc1ccccc1` [Example 123, 1-{3-[(R)-((2S,5R)-4-Benzyl-2,5-dimethyl-piperazin-1-yl)-(3-hydroxy-phenyl)-methyl]-benzoyl}-piperidine-4-carboxylic acid], in data set [1] (10 mg/kg IV), the Seiz. is reported as 0% 10 mg/kg IV. Also, the EC50 was determined as 0.48 nM in data set [2] and 17.8 nM in data set [3].
On the same counts, the results for `C[C@@H]1CN([C@@H](c2cccc(O)c2)c2cccc(C(=O)N3CCC(C(=O)O)CC3)c2)[C@@H](C)CN1Cc1cccc(F)c1` [Example 125, 1-{3-[(R)-[(2S,5R)-4-(3-Fluoro-benzyl)-2,5-dimethyl-piperazin-1-yl]-(3-hydroxyphenyl)-methyl]-benzoyl}-piperidine-4-carboxylic acid] are 0% 10 mg/kg IV, 1.42 nM and 46.7 nM.
`C[C@@H]1CN(C(c2cccc(O)c2)c2cccc(C(=O)N3CCCN(CC(=O)O)CC3)c2)[C@@H](C)CN1Cc1ccccc1` (stereo partly drawn) had a Seiz. in data set [1] (20 mg/kg IV) of 0% 20 mg/kg IV. Besides, the figures for the EC50 in data set [2] and in data set [3] were 1.4 nM and above 1000 nM, respectively. Moreover, the Ki in data set [4] came out at 1.27 nM.
For the compound `C=CCN1C[C@H](C)N([C@@H](c2cccc(O)c2)c2cccc(C(=O)N3CCC(C(=O)O)CC3)c2)C[C@H]1C` [Example 120, 1-{3-[(R)-((2S,5R)-4-Allyl-2,5-dimethyl-piperazin-1-yl)-(3-hydroxy-phenyl)-methyl]-benzoyl}-piperidine-4-carboxylic acid], the Seiz. in data set [1] (10 mg/kg IV) was 10% 10 mg/kg IV. The EC50 in data set [2] came to 2.49 nM; in data set [3] it was 48.6 nM. In data set [4], the Ki is 4.1 nM.
The compound `CCOC(=O)CCCCCN1CCN(C(=O)c2cccc([C@H](c3cccc(O)c3)N3C[C@@H](C)N(Cc4ccccc4)C[C@@H]3C)c2)CC1` [Example 96, 6-(4-{3-[(R)-((2S,5R)-4-Benzyl-2,5-dimethyl-piperazin-1-yl)-(3-hydroxy-phenyl)-methyl]-benzoyl}-piperazin-1-yl)-hexanoic acid ethyl ester] displayed a Seiz. in data set [1] (10 mg/kg IV) of 60% 10 mg/kg IV. Moreover, the response in data set [2] was half-maximal at 10.4 nM (EC50). Besides, the Ki in data set [4] was 2 nM; in data set [5], 6.9 nM.
The like results for `C=CCN1C[C@H](C)N([C@@H](c2cccc(O)c2)c2cccc(C(=O)N3CCN(CCC(=O)O)CC3)c2)C[C@H]1C` [Example 73, 3-(4-{3-[(R)-((2S,5R)-4-Allyl-2,5-dimethyl-piperazin-1-yl)-(3-hydroxy-phenyl)-methyl]-benzoyl}-piperazin-1-yl)-propionic acid] were, in that order, 0% 10 mg/kg IV, 2.28 nM, 17.1 nM and 2.6 nM.
The like results for `C=CCN1C[C@H](C)N([C@@H](c2cccc(O)c2)c2cccc(C(=O)N3CCN(CCCCCC(=O)O)CC3)c2)C[C@H]1C` [Example 94, 6-(4-{3-[(R)-((2S,5R)-4-Allyl-2,5-dimethyl-piperazin-1-yl)-(3-hydroxy-phenyl)-methyl]-benzoyl}-piperazin-1-yl)-hexanoic acid] were, in that order, 0% 10 mg/kg IV, 6.07 nM, 64.3 nM and 2.5 nM.
The like results for `C=CCN1C[C@H](C)N([C@@H](c2cccc(O)c2)c2cccc(C(=O)N3CCN(Cc4ccc(C(=O)OC)cc4)CC3)c2)C[C@H]1C` [Example 91, 4-(4-{3-[(R)-((2S,5R)-4-Allyl-2,5-dimethyl-piperazin-1-yl)-(3-hydroxy-phenyl)-methyl]-benzoyl}-piperazin-1-ylmethyl)-benzoic acid methyl ester] were, in that order, 70% 10 mg/kg IV, 23.1 nM, 6.5 nM and 2.7 nM.
`CCOC(=O)CCCCN1CCCN(C(=O)c2cccc(C(c3cccc(O)c3)N3C[C@@H](C)N(Cc4cccc(F)c4)C[C@@H]3C)c2)CC1` (stereo partly drawn) displayed a Seiz. in data set [1] (10 mg/kg IV) of 0% 10 mg/kg IV. The compound also yielded an EC50 in data set [2] of 61.5 nM. For the same compound, the Ki in data set [4] amounted to 15.7 nM; in data set [5], 6.1 nM.
On the same counts, the results for `C[C@@H]1CN([C@@H](c2cccc(O)c2)c2cccc(C(=O)N3CCN(CCCCCCC(=O)O)CC3)c2)[C@@H](C)CN1Cc1ccccc1` [Example 111, 7-(4-{3-[(R)-((2S,5R)-4-Benzyl-2,5-dimethyl-piperazin-1-yl)-(3-hydroxy-phenyl)-methyl]-benzoyl}-piperazin-1-yl)-heptanoic acid] are 0% 10 mg/kg IV, 3.82 nM, 8.7 nM and 0.77 nM.
The like results for `C=CCN1C[C@H](C)N([C@@H](c2cccc(O)c2)c2cccc(C(=O)N3CCC(=CC(=O)O)CC3)c2)C[C@H]1C` [Example 138, (1-{3-[(R)-((2S,5R)-4-allyl-2,5-dimethyl-1-piperazinyl)(3-hydroxyphenyl)methyl]-benzoyl}-4-piperidinylidene)acetic acid] were, in that order, 0% 10 mg/kg IV, 1.35 nM, 7.4 nM and 0.63 nM.
`C[C@@H]1CN([C@@H](c2cccc(O)c2)c2cccc(C(=O)N3CCN(CCCC(=O)O)CC3)c2)[C@@H](C)CN1CC1CC1` [Example 78, 4-(4-{3-[(R)-((2S,5R)-4-Cyclopropylmethyl-2,5-dimethyl-piperazin-1-yl)-(3-hydroxy-phenyl)-methyl]-benzoyl}-piperazin-1-yl)-butyric acid] returned a Seiz. in data set [1] (10 mg/kg IV) of 0% 10 mg/kg IV. The compound further showed a half-maximal effective concentration (EC50) in data set [2] of 26.6 nM. For the same compound, the Ki came to 194 nM in data set [4] and 10.2 nM in data set [5].
As for `CCOC(=O)N1CCN(C(=O)c2cccc([C@H](c3cccc(O)c3)N3C[C@@H](C)N(Cc4ccccc4)C[C@@H]3C)c2)CC1` [Example 62, 4-{3-[(R)-((2S,5R)-4-Benzyl-2,5-dimethyl-piperazin-1-yl)-(3-hydroxy-phenyl)-methyl]-benzoyl}-piperazine-1-carboxylic acid ethyl ester], the Seiz. in data set [1] (10 mg/kg IV) worked out at 70% 10 mg/kg IV. The compound further registered an EC50 in data set [2] of 6.78 nM. In addition, the Ki came out at 1.7 nM in data set [4] and 2.2 nM in data set [5].
On the same counts, the results for `CCOC(=O)CCCCN1CCCN(C(=O)c2cccc(C(c3cccc(O)c3)N3C[C@@H](C)N(Cc4ccccc4)C[C@@H]3C)c2)CC1` (stereo partly drawn) are 25% 10 mg/kg IV, 11.1 nM, 6.3 nM and 2.6 nM.
For `CCOC(=O)CN1CCCN(C(=O)c2cccc(C(c3cccc(O)c3)N3C[C@@H](C)N(CC4CC4)C[C@@H]3C)c2)CC1` (stereo partly drawn), the Seiz. in data set [1] (20 mg/kg IV) amounted to 0% 20 mg/kg IV. Besides, in data set [2], the 50% effective concentration (EC50) came to 38.9 nM. Also, the Ki in data set [4] is 3.9 nM; in data set [5], 1.9 nM.
For the compound `C[C@@H]1CN([C@@H](c2cccc(O)c2)c2cccc(C(=O)N3CCN(CCCCC(=O)O)CC3)c2)[C@@H](C)CN1Cc1cccc(F)c1` [Example 88, 5-(4-{3-[(R)-((2S,5R)-4-(3-Fluorobenzyl)-2,5-dimethyl-piperazin-1-yl)-(3-hydroxy-phenyl)-methyl]-benzoyl}-piperazin-1-yl)-pentanoic acid], the Seiz. in data set [1] (10 mg/kg IV) came to 0% 10 mg/kg IV. Further, in data set [2], the midpoint of the response, the EC50, lay at 6.66 nM. Moreover, the Ki in data set [4] is 211 nM; in data set [5], 16.9 nM.
As for `CCOC(=O)CCCN1CCCN(C(=O)c2cccc(C(c3cccc(O)c3)N3C[C@@H](C)N(Cc4cccc(F)c4)C[C@@H]3C)c2)CC1` (stereo partly drawn), the EC50 in data set [2] was 30 nM; in data set [3], 1500 nM. In addition, the Ki in data set [4] amounted to 2.3 nM; in data set [5], 1.7 nM.
On the same counts, the results for `C[C@@H]1CN(C(c2cccc(O)c2)c2cccc(C(=O)N3CCCN(CCCCCC(=O)O)CC3)c2)[C@@H](C)CN1Cc1ccccc1` (stereo partly drawn) are 3.26 nM, 303 nM, 3.9 nM and 2.8 nM.
`CCOC(=O)CCCCN1CCN(C(=O)c2cccc([C@H](c3cccc(O)c3)N3C[C@@H](C)N(Cc4ccccc4)C[C@@H]3C)c2)CC1` [Example 86, 5-(4-{3-[(R)-[(2S,5R)-4-Benzyl-2,5-dimethyl-piperazin-1-yl]-(3-hydroxy-phenyl)-methyl]-benzoyl}-piperazin-1-yl)-pentanoic acid ethyl ester]: the Seiz. in data set [1] (10 mg/kg IV) came out at 60% 10 mg/kg IV. In data set [2], this compound showed an EC50 of 12.6 nM. The Ki stood at 9.1 nM in data set [4] and 3.1 nM in data set [5].
The like results for `C=CCN1C[C@H](C)N(C(c2cccc(O)c2)c2cccc(C(=O)N3CCCN(CCCCCC(=O)O)CC3)c2)C[C@H]1C` (stereo partly drawn) were, in that order, 0% 10 mg/kg IV, 19 nM, 89.9 nM and 5.3 nM.
